How the values were obtained:
[1] = humans, compared with MK-4 (Sato 2012); cited from earlier work
[2] = in vivo; cited from earlier work
[3] = system: patient suffering from MS; conditions: daily 300 mg bupropion over four weeks, MRI after three months, MS patient with depression; cited from earlier work
MS patients = conditions: cited from earlier work
PC12D cells = conditions: cell cultures (Tsang 2002); cited from earlier work
EAE rat model = conditions: cited from earlier work
MS-patients = test: Treatment of MS patients with the triple combination (case reports, MS score); assay type: in vivo, human; conditions: Example 2: one MS patient, own words
Excerpt: The scoring ranges from zero to ten points and is the sum of the physical score and cognitive score. Attributing half points was allowed to better cover the full scale and subtlety of MS symptoms.

In the case of `CC(C)=CCC/C(C)=C/CC/C(C)=C/CC/C(C)=C/CC/C(C)=C/CC/C(C)=C/CC/C(C)=C/CC1=C(C)C(=O)c2ccccc2C1=O` [MK-7], the “bioavailability after oral intake” value [1] is listed as “much higher bioavailability after oral intake than MK-4”.

In the case of `CC1=CC(=O)c2ccccc2C1=O` [VK3, 2-methylnaphthalene-1,4-dione], the “reason for discontinued sales as prescription drug” value [2] is listed as “adverse effects and liver toxicity”.

For `CC(NC(C)(C)C)C(=O)c1cccc(Cl)c1` (centres unmarked) [bupropion], the “MRI analysis of lesions” value [3] is listed as “rather showed a reduction of the lesions than a progression”.

For `C=C1CC[C@H](O)C/C1=C/C=C1\CCC[C@]2(C)[C@@H]([C@H](C)CCCC(C)C)CC[C@@H]12` [vitamin D3, cholecalciferol], the “correlation with treatment effect in MS” value (MS patients; meta-analysis (Steinwart 2018), weekly dosage of 20,000 IU D3) is given as “did not provide any relevant correlation with treatment effect”.

For `CC1=C(C/C=C(\C)CCC[C@H](C)CCC[C@H](C)CCCC(C)C)C(=O)c2ccccc2C1=O` [vitamin K1, phylloquinone], the “nerve growth factor-mediated neurite outgrowth” value (PC12D cells) is listed as “promoting activity”.

For Vitamin D, the “EDSS scores and annual relapse rate (ARR)” value (MS patients; meta-analysis Zheng 2018) is given as “no therapeutic effect” and the “recurrence of relapse, worsening of disability (EDSS), MRI lesions” value (MS patients; review Jagannath 2018) is given as “no effect”.

In the case of menaquinone [VK2], the “efficacy in EAE” value (EAE rat model; given after the onset of EAE) is given as “not effective”, the “severity of EAE” value (EAE rat model; prophylactic intraperitoneal administration, 62.5 mg/kg/d) is given as “ameliorated the severity of EAE” and the “nerve growth factor-mediated neurite outgrowth” value (PC12D cells) is given as “promoting activity”.

For “ocrelizumab: humanised monoclonal antibody that targets the CD20 marker on B lymphocytes”, the “patient's comparison of ocrelizumab with the combination therapy” value (MS-patients) was “could not achieve what this combination therapy could”.

From US20220323380A1, “DRUG COMBINATION FOR USE IN THE TREATMENT OF INFLAMMATORY DISEASES” (ISANAS AG, priority 2019, published 2022)
